Source: US9040259B2, “Production of polyketides and other natural products” (Buck Institute for Research on Aging, priority 2002, dated 2015)
pIC50: −log10 of the molar value. Where two headings read alike, the source gives them in different places.

Columns and labels:
[1] = test system: splenic lymphocytes isolated from C57BL/6 mice; assay: Mixed lymphocyte reaction (MLR), [3H] thymidine incorporation; assay type: cell-based; conditions: IC50 quoted as a ratio of the rapamycin IC50; 72 h, 37° C.
Method: Originally developed to assess tissue compatibility prior to allografts, MLR offers an established model for immune reaction in vitro (SOULILLOU, J. P., et al. (1975); T. Meo. “Immunological Methods”, L. Lefkovits and B. Pernis, Eds., Academic Press, N.Y. pp. 227-239 (1979). MLR was performed by mixing splenic lymphocytes isolated from C57BL/6 mice (5×10^5 cells) with inhibited splenic lymphocytes from CBA mice (2.5×10^5 cells). The inhibited CBA lymphocytes induced a proliferative response in C57BU6 lymphocytes and this was determined by [^3H] thymidine incorporation into DNA as a measure of proliferation of splenic lymphocytes isolated from C57BU6 mice. The anti-proliferative effect was assayed for in the presence of log scale dilutions of reference compounds, test compounds and media controls over a 72 h period at 37° C. The concentration of each test compound and reference compound, which inhibited lymphocyte proliferation by 50% (IC50), compared to control proliferation, was calculated for each cell line and quoted as a ratio of the concentration of rapamycin required to inhibit lymphocyte proliferation by 50% (rIC50), see Table XIV.

MCF-7 (breast) = assay: MTT growth inhibition assay, MCF-7 (breast) tumour cell line; assay type: cell-based, human; conditions: MCF-7 cell line, 72 h; for pIC50: concentration giving 50% of maximum inhibition, read-out: IC50 (row head: MCF-7 rIC50)
Method: (§1) Growth inhibition of adherent human tumour cell lines of solid malignancies HT29 (colon) and MCF-7 (breast) was tested in vitro using an MTT (3-(4,5-dimethylthiazol-2-yl)-2,5-diphenyltetrazolium bromide) assay using micro-titre plates (Sieuwerts, A. M., et al., 1995). All cell lines were obtained from either the ATCC (American Type Culture Collection) or ECACC (European Collection of Cell Cultures). All cell lines were grown from frozen stocks and passaged at least once prior to use in RPMI 1640. Cells were harvested from sub-confluent cultures using minimal trypsinization. Cells were diluted to the appropriate density for each cell line (dependent on cell doubling time) in RPMI 1640, and seeded in 60 wells of a 96 well plate in a volume of 100 μl per well (i.e. outside wells of the plate were not used). Plates were incubated at 37° C. overnight. Following this incubation, log scale dilutions of reference and test substances were added in 100 μl per well, 6 replicates were used to test all test compounds, reference compounds and medium controls. Plates were incubated for a further 72 h prior to analysis. MTT (5 mg/ml) was added to each well and plates were re-incubated for 3-4 h. Unreacted MTT was removed from the wells and formazan crystals formed from the MTT were dissolved in DMSO and characteristic absorbance read at 570 nm.

HT29 (colon) = assay: MTT growth inhibition assay, HT29 (colon) tumour cell line; assay type: cell-based, human; conditions: for pIC50: concentration giving 50% of maximum inhibition, read-out: IC50 (row head: HT29 rIC50)
Method: as §1

[2] = test system: Candida albicans DSM 1386; assay: Anti-fungal assay, NCCLS M27-A microtitre broth dilution; assay type: cell-based; conditions: MIC as a ratio of the rapamycin MIC; 37° C., 24 h
Method: (§2) The comparative anti-fungal activities of reference and test compounds were determined against pathogenic fungi Candida albicans DSM 5816, Candida albicans DSM 1386 and Candida glabrata DSM 11226. This was achieved using a microtitre plate adaption of the NCCLS Reference Method for Broth Dilution Antifungal Susceptibility Testing for Yeasts: Approved Standard (M27-A, vol. 17 No. 9. (1997)). Yeast strains were inoculated (10^4 cfu/ml) to RPMI 1640 media containing […] MOPS, pH 7. Growth was determined in the presence of log scale dilutions of reference compounds, test compounds and media controls after incubation with shaking at 37° C., 24 h. Minimum inhibitory concentration (MIC) and minimum fungicidal activity (MFC) were determined for test compounds and expressed as a ratio of the rapamycin minimum inhibitory concentration (rMIC respectively), see Table XV.

[3] = test system: Candida albicans DSM 5816; assay: as above; assay type: cell-based; conditions: MIC as a ratio of the rapamycin MIC; 37° C., 24 h
Method: as §2

[4] = test system: Candida glabrata DSM 11226; assay: as above; assay type: cell-based; conditions: MIC as a ratio of the rapamycin MIC; 37° C., 24 h
Method: as §2

[5] = compared to rapamycin; Wong et al., 1998; cited from earlier work
[6] = compared to rapamycin; Khaw et al., 1998; cited from earlier work
murine splenic B cells = conditions: compared to rapamycin; Box et al., 1995; cited from earlier work
murine splenic T cells = conditions: compared to rapamycin; Box et al., 1995; cited from earlier work
[7] = compared to rapamycin; Box et al., 1995; cited from earlier work
FKBP12 = FKBP12 (Homo sapiens, UniProt P62942); conditions: compared to rapamycin; Box et al., 1995; cited from earlier work
FKBP12, sequence (P62942 whole entry): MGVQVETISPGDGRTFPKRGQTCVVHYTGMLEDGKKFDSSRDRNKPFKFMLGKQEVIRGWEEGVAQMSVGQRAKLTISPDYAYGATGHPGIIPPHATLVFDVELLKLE

[8] = test system: mixed lymphocyte reaction; conditions: Nishida et al., 1995; cited from earlier work

| Molecule | MLR rIC50 [1] | Im (maximum percentage of inhibition observed) (MCF-7 (breast)) | pIC50 (MCF-7 (breast)) | Im (maximum percentage of inhibition observed) (HT29 (colon); 72 h) | pIC50 (HT29 (colon); 72 h) | C. albicans DSM 1386 rMIC [2] | C. albicans DSM 5816 rMIC [3] | C. glabrata DSM 11226 rMIC [4] | also measured |
| --- | --- | --- | --- | --- | --- | --- | --- | --- | --- |
| COC1CC2CCC(C)C(O)(CC(=O)N3CCCCC3C(=O)OC(C(C)CC3CCC(O)C(OC)C3)CC(=O)C(C)C=C(C)C(O)CC(=O)C(C)CC(C)C=CC=CC=C1C)O2 (stereo not shown) [Compound 16, 9-deoxo-27-desmethoxy-rapamycin] | >14.7 | 32% | 8.70 | 25% | 7.80 | 5 | 1 | 5 |  |
| COC1CC2CCC(C)C(O)(O2)C(=O)C(=O)N2CCCC2C(=O)OC(C(C)CC2CCC(O)C(OC)C2)CC(=O)C(C)/C=C(\C)C(O)C(OC)C(=O)C(C)CC(C)/C=C/C=C/C=C/1C (stereo not shown) [prolylrapamycin, reference compound] |  |  |  |  |  |  |  |  | antifungal activities [5]: lower than that of rapamycin |
| CO[C@H]1C[C@@H]2CC[C@@H](C)[C@](O)(CC(=O)N3CCCC[C@H]3C(=O)O[C@H]([C@H](C)C[C@@H]3CC[C@@H](O)[C@H](O)C3)CC(=O)[C@H](C)/C=C(\C)[C@@H](O)[C@@H](O)C(=O)[C@H](C)C[C@H](C)/C=C/C=C/C=C/1C)O2 [Compound 8, 9-deoxo-27-O-desmethyl-39-O-desmethyl-rapamycin] | 4.1 | 38% | 7.70 | 30% | 7.20 | 1 | 1 | 1 |  |
| 4-hydroxyprolyl-26-desmethoxy-rapamycin |  |  |  |  |  |  |  |  | inhibitory activity in proliferation assays [6]: significantly less than that of rapamycin |
| 27-desmethoxy-rapamycin [Compound 22] |  |  |  |  |  |  |  |  | antifungal activities [5]: lower than that of rapamycin |
| CO[C@@H]1C[C@H](C[C@@H](C)[C@@H]2CC(=O)[C@H](C)/C=C(\C)[C@@H](O)[C@@H](O)C(=O)[C@H](C)C[C@H](C)/C=C/C=C/C=C(\C)[C@@H](O)C[C@@H]3CC[C@@H](C)[C@](O)(CC(=O)N4CCCC[C@H]4C(=O)O2)O3)CC[C@H]1O [Compound 9, 9-deoxo-16-O-desmethyl-27-O-desmethyl-rapamycin] | 6.5 | 40% | 7.75 | 35% | 7.90 | 1 | 1 | 1 |  |
| CO[C@H]1C[C@@H]2CC[C@@H](C)[C@@](O)(O2)C(=O)C(=O)N2CCCC[C@H]2C(=O)O[C@H]([C@H](C)C[C@@H]2CC[C@@H](O)[C@H](OC)C2)CC(=O)[C@H](C)/C=C(\C)[C@@H](O)[C@@H](O)C(=O)[C@H](C)C[C@H](C)/C=C/C=C/C=C/1C [Compound 21, 27-O-desmethyl-rapamycin] |  |  |  |  |  |  |  |  | inhibition of LPS-stimulated proliferation of murine splenic B cells (murine splenic B cells): decreased when compared to rapamycin; inhibition of ConA-stimulated proliferation of murine splenic T cells (murine splenic T cells): decreased when compared to rapamycin; antifungal activities [5]: lower than that of rapamycin; antifungal activity [7]: lower than that of rapamycin; inhibition of FKBP12 PPlase activity (FKBP12): seemed to be increased |
| CO[C@H]1C[C@@H]2CC[C@@H](C)[C@](O)(CC(=O)N3CCCC[C@H]3C(=O)O[C@H]([C@H](C)C[C@@H]3CC[C@@H](O)[C@H](OC)C3)CC(=O)[C@H](C)/C=C(\C)[C@@H](O)[C@@H](OC)C(=O)[C@H](C)C[C@H](C)/C=C/C=C/C=C/1C)O2 [Compound 19, 9-deoxo-rapamycin] |  |  |  |  |  |  |  |  | mixed lymphocyte reaction (MLR) inhibitory activity [8]: more significant decrease in activity |
| CC1=CC(C)C(=O)CC(C(C)CC2CCC(O)C(O)C2)OC(=O)C2CCCCN2C(=O)CC2(O)OC(CCC2C)CC(O)C(C)=CC=CC=CC(C)CC(C)C(=O)CC1O (stereo not shown) [Compound 1, 9-deoxo-16-O-desmethyl-27-desmethoxy-39-O-desmethyl-rapamycin] | 9.4 | 38% | 8.49 | 38% | 7.30 | 5 | 1 | 5 |  |
| CC1=CC(C)C(=O)CC(C(C)CC2CCC(O)C(O)C2)OC(=O)C2CCCCN2C(=O)C(=O)C2(O)OC(CCC2C)CC(O)C(C)=CC=CC=CC(C)CC(C)C(=O)CC1O (stereo not shown) [Compound 3, 16-O-desmethyl-27-desmethoxy-39-O-desmethyl-rapamycin] | 7.9 | 38% | 7.70 | 37% | 7.20 | 1 | 1 | 1 |  |
| CO[C@H]1C[C@@H]2CC[C@@H](C)[C@@](O)(O2)C(=O)C(=O)N2CCCC[C@H]2C(=O)O[C@H]([C@H](C)C[C@@H]2CC[C@@H](O)[C@H](OC)C2)CC(=O)[C@H](C)/C=C(\C)[C@@H](O)[C@@H](OC)C(=O)[C@H](C)C[C@H](C)/C=C/C=C/C=C/1C [rapamycin, reference compound] |  | 56% |  | 40% |  |  |  |  | pIC50 (MCF-7 (breast); Homo sapiens, MCF7): 10.52; pIC50 (HT29 (colon); Homo sapiens, HT-29, 72 h): 6.70 |
| CO[C@@H]1C[C@H](C[C@@H](C)[C@@H]2CC(=O)[C@H](C)/C=C(\C)[C@@H](O)CC(=O)[C@H](C)C[C@H](C)/C=C/C=C/C=C(\C)[C@@H](O)C[C@@H]3CC[C@@H](C)[C@](O)(CC(=O)N4CCCC[C@H]4C(=O)O2)O3)CC[C@H]1O [Compound 6, 9-deoxo-16-O-desmethyl-27-desmethoxy-rapamycin] | 8.8 | 48% | 6.90 | 38% | 7.60 | 5 | 1 | 5 |  |
